Source: patent US10040781B2, “Tank-binding kinase inhibitor compounds” (Gilead Sciences, Inc., priority 2014, dated 2018)
Where a name gives a salt, the structure may show the parent alone. Read-outs that look alike come from different tables or passages of the source.

What was measured:
hJAK2 = hJAK2 (Homo sapiens (Human), UniProt O60674); assay: hJAK2 LANCE TR-FRET enzymatic assay; format: biochemical; conditions: read-out: JAK2 IC50
TBK1 = TBK1 (Homo sapiens (Human), UniProt Q9UHD2); assay: TBK1 TR-FRET enzymatic assay;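 further: phosphorylation of a biotinylated Ser/Thr peptide by purified full-length recombinant TBK1, read by TR-FRET after 240 min at 25 °C, IC50 is the geometric mean of at least four runs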
IKKε = IKKε (Homo sapiens (Human), UniProt Q14164); assay: IKKε TR-FRET enzymatic assay; format: biochemical; conditions: read-out: IKKe IC50
[1] = TR-FRET, 2×Km ATP, geometric mean of minimum four determinations

TBK1, sequence (Q9UHD2 whole entry): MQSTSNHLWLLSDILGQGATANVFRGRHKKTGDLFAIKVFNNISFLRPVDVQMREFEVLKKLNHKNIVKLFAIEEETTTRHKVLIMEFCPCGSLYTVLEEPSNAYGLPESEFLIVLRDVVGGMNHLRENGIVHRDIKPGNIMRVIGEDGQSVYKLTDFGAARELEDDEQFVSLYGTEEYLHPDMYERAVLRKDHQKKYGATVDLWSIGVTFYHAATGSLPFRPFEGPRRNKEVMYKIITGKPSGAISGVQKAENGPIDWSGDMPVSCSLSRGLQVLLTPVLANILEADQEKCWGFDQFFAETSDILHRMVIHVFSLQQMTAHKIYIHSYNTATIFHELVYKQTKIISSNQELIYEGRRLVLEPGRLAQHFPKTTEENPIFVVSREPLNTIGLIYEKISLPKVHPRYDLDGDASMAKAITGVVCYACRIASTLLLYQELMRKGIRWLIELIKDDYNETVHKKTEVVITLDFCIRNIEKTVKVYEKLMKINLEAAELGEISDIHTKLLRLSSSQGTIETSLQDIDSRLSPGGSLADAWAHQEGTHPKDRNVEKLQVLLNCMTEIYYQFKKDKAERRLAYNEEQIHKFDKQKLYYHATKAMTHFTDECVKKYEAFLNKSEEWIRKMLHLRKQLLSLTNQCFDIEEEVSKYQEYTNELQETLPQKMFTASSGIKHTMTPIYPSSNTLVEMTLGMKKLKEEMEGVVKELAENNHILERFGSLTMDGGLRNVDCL
IKKε, sequence (Q14164 whole entry): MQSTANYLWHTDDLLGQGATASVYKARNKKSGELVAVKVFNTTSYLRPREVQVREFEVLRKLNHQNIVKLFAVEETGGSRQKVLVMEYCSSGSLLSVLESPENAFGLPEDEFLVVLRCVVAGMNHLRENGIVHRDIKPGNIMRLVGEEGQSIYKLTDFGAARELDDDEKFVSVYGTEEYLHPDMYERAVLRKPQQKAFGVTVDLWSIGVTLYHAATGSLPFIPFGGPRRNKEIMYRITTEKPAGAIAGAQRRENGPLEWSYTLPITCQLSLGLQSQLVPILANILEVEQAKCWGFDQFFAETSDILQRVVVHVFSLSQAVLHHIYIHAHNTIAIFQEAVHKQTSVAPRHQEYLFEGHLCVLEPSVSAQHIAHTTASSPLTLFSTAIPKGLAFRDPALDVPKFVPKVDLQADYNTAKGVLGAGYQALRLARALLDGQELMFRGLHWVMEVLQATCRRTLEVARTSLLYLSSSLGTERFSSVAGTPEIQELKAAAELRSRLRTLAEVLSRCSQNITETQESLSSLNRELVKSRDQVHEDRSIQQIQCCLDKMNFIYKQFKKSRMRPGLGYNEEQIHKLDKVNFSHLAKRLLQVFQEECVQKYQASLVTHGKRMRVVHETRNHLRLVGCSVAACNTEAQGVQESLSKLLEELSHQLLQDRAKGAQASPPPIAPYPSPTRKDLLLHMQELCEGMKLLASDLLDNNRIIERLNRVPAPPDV
hJAK2, sequence (O60674 whole entry): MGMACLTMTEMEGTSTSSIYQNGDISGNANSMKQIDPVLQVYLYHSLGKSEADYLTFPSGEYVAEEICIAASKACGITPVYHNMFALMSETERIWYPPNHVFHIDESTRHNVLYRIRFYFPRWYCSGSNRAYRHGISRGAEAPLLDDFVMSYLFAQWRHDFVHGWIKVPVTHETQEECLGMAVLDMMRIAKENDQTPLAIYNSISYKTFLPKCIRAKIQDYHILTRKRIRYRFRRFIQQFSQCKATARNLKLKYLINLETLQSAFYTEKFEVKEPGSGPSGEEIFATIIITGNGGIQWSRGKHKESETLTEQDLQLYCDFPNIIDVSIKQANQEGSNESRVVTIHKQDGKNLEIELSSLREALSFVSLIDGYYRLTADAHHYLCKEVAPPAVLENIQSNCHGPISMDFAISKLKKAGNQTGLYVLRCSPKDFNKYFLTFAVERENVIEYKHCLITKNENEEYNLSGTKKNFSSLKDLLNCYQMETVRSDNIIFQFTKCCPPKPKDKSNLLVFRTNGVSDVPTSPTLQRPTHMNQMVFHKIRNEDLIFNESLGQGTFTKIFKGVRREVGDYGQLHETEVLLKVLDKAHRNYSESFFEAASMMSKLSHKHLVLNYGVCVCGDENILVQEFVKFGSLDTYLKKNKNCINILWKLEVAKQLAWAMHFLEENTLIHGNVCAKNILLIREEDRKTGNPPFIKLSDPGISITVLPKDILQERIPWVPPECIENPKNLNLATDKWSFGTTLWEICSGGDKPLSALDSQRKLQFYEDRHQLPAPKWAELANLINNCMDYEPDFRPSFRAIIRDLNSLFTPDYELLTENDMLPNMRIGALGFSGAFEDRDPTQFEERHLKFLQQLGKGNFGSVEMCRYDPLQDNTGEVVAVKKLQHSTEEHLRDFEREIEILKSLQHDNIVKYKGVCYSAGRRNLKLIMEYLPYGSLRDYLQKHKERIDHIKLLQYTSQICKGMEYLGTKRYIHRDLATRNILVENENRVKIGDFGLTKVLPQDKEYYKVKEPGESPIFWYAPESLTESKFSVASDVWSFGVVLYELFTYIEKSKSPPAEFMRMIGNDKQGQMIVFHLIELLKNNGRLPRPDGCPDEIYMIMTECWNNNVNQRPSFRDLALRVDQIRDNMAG

| Compound | IC50 (hJAK2) | IC50 (TBK1) | IC50 (IKKε; [1]) | IC50 (IKKε) |
| --- | --- | --- | --- | --- |
| C[C@H]1CN(C(=O)CO)CC(F)(F)[C@H]1Oc1ccc(-c2ncnc(Nc3ccc(N4CCN(C5COC5)CC4)cc3)n2)cc1C#N (relative stereo) [Example 430, Cis 2-((3,3-difluoro-1-(2-hydroxyacetyl)-5-methylpiperidin-4-yl)oxy)-5-(4-((4-(4-(oxetan-3-yl)piperazin-1-yl)phenyl)amino)-1,3,5-triazin-2-yl)benzonitrile] | 65 nM | 4 nM | 2 nM | – |
| C[C@@H]1CN(C(=O)CO)CC(F)(F)[C@H]1Oc1ccc(-c2ncnc(Nc3ccc(N4CCN(C5COC5)CC4)cc3)n2)cc1C#N (relative stereo) [Example 432, trans-2-((3,3-difluoro-1-(2-hydroxyacetyl)-5-methylpiperidin-4-yl)oxy)-5-(4-((4-(4-(oxetan-3-yl)piperazin-1-yl)phenyl)amino)-1,3,5-triazin-2-yl)benzonitrile] | 140 nM | 5 nM | 3 nM | – |
| N#Cc1cc(-c2ncnc(Nc3ccc(N4CCN(C5COC5)CC4)cc3)n2)ccc1O[C@H]1CCN(C(=O)CO)C[C@@H]1C(F)(F)F (relative stereo) [Example 438, Trans-2-((1-(2-hydroxyacetyl)-3-(trifluoromethyl)piperidin-4-yl)oxy)-5-(4-((4-(4-(oxetan-3-yl)piperazin-1-yl)phenyl)amino)-1,3,5-triazin-2-yl)benzonitrile] | 15 nM | 6 nM | 8 nM | – |
| N#Cc1cc(-c2ncnc(Nc3ccc(N4CCN(C5COC5)CC4)cc3)n2)ccc1O[C@H]1CCN(C(=O)CO)C[C@H]1C(F)(F)F (relative stereo) [Example 439, cis-2-((1-(2-hydroxyacetyl)-3-(trifluoromethyl)piperidin-4-yl)oxy)-5-(4-((4-(4-(oxetan-3-yl)piperazin-1-yl)phenyl)amino)-1,3,5-triazin-2-yl)benzonitrile] | 21 nM | 9 nM | 12 nM | – |
| N#Cc1cc(-c2ncnc(Nc3ccc(N4CCN(C5COC5)CC4)cc3)n2)ccc1O[C@H]1CCNCC1(F)F (single isomer, unassigned) [Example 149] | 330 nM | 49 nM | – | 229 nM |
| N#Cc1cc(-c2ncnc(Nc3ccc(N4CCN(C5COC5)CC4)cc3)n2)ccc1O[C@@H]1CCNCC1(F)F (single isomer, unassigned) [Example 150] | 270 nM | 2 nM | – | 14 nM |
| C[C@H](O)C(=O)N1CC[C@@H](Oc2ccc(-c3ncnc(Nc4ccc(N5CCN(C6COC6)CC5)cc4)n3)cc2C#N)C(F)(F)C1 (single isomer, unassigned) [Example 156] | 196 nM | 16 nM | – | 23 nM |
| C[C@@H](O)C(=O)N1CC[C@H](Oc2ccc(-c3ncnc(Nc4ccc(N5CCN(C6COC6)CC5)cc4)n3)cc2C#N)C(F)(F)C1 (single isomer, unassigned) [Example 158] | 171 nM | 1 nM | – | 3 nM |
| C[C@@H](O)C(=O)N1CC[C@@H](Oc2ccc(-c3ncnc(Nc4ccc(N5CCN(C6COC6)CC5)cc4)n3)cc2C#N)C(F)(F)C1 (single isomer, unassigned) [Example 159] | 207 nM | 79 nM | – | 209 nM |
| CC1(C)CN(C(=O)CO)C[C@H](F)[C@@H]1Oc1ccc(-c2ncnc(Nc3ccc(N4CCN(C5COC5)CC4)cc3)n2)cc1C#N (single isomer, unassigned) [Example 178] | 49 nM | 2 nM | – | 1 nM |
| CC1(C)CN(C(=O)CO)C[C@@H](F)[C@H]1Oc1ccc(-c2ncnc(Nc3ccc(N4CCN(C5COC5)CC4)cc3)n2)cc1C#N (single isomer, unassigned) [Example 179] | 234 nM | 8 nM | – | 13 nM |
| N#Cc1cc(-c2ncnc(Nc3ccc(N4CCN(C5COC5)CC4)cc3)n2)ccc1O[C@H]1CN(C(=O)CO)CC1(F)F (single isomer, unassigned) [Example 195] | 90 nM | 2 nM | – | 10 nM |
| N#Cc1cc(-c2ncnc(Nc3ccc(N4CCN(C5COC5)CC4)cc3)n2)ccc1O[C@@H]1CN(C(=O)CO)CC1(F)F (single isomer, unassigned) [Example 196] | 118 nM | 114 nM | – | 391 nM |
| CC(N)C(=O)N1CC[C@H](Oc2ccc(-c3ncnc(Nc4ccc(N5CCN(C6COC6)CC5)cc4)n3)cc2C#N)[C@H](F)C1 (stereo in doubt) [Example 434, 2-(((3R,4S)-1-((R)-2-aminopropanoyl)-3-fluoropiperidin-4-yl)oxy)-5-(4-((4-(4-(oxetan-3-yl)piperazin-1-yl)phenyl)amino)-1,3,5-triazin-2-yl)benzonitrile] | 865 nM | 20 nM | 42 nM | – |
| N#Cc1cc(-c2ncnc(Nc3ccc(N4CCS(=O)(=O)CC4)cc3)n2)ccc1OC1CCOCC1 [Example 1, 5-(4-((4-(1,1-dioxidothiomorpholino)phenyl)amino)-1,3,5-triazin-2-yl)-2-((tetrahydro-2H-pyran-4-yl)oxy)benzonitrile] | 360 nM | 2 nM | – | 6 nM |
| CC(=O)N1CC[C@@H](Oc2ccc(-c3ncnc(Nc4ccc(N5CCN(C6COC6)CC5)cc4)n3)cc2C#N)C1 [Example 3, (R)-2-((1-acetylpyrrolidin-3-yl)oxy)-5-(4-((4-(4-(oxetan-3-yl)piperazin-1-yl)phenyl)amino)-1,3,5-triazin-2-yl)benzonitrile] | 724 nM | 20 nM | – | 99 nM |
| N#Cc1cc(-c2ncnc(Nc3ccc(N4CCN(C5COC5)CC4)cc3)n2)ccc1OC1COC1 [Example 5, 5-(4-((4-(4-(oxetan-3-yl)piperazin-1-yl)phenyl)amino)-1,3,5-triazin-2-yl)-2-(oxetan-3-yloxy)benzonitrile] | 269 nM | 35 nM | – | 101 nM |
| CC1(COc2ccc(-c3ncnc(Nc4ccc(N5CCN(C6COC6)CC5)cc4)n3)cc2C#N)COC1 [Example 6, 2-((3-methyloxetan-3-yl)methoxy)-5-(4-((4-(4-(oxetan-3-yl)piperazin-1-yl)phenyl)amino)-1,3,5-triazin-2-yl)benzonitrile] | 178 nM | 7 nM | – | 20 nM |
| COc1cc(Nc2ncnc(-c3ccc(OC4CCOCC4)c(C#N)c3)n2)ccc1N1CCN(CC(F)F)CC1 [Example 7, 5-(4-((4-(4-(2,2-difluoroethyl)piperazin-1-yl)-3-methoxyphenyl)amino)-1,3,5-triazin-2-yl)-2-((tetrahydro-2H-pyran-4-yl)oxy)benzonitrile] | 225 nM | 1 nM | – | 3 nM |
| Cn1cc(Nc2ncnc(-c3ccc(N4CCCC4)c(C#N)c3)n2)cn1 [Example 8, 5-(4-((1-methyl-1H-pyrazol-4-yl)amino)-1,3,5-triazin-2-yl)-2-(pyrrolidin-1-yl)benzonitrile] | 278 nM | 7 nM | – | 19 nM |
| Cn1cc(Nc2ncnc(-c3ccc(OC4CCOCC4)c(C#N)c3)n2)cn1 [Example 9, 5-(4-((1-methyl-1H-pyrazol-4-yl)amino)-1,3,5-triazin-2-yl)-2-((tetrahydro-2H-pyran-4-yl)oxy)benzonitrile] | 363 nM | 3 nM | – | 7 nM |
| N#Cc1cc(-c2ncnc(Nc3ccc(N4CCN(C5COC5)CC4)cc3)n2)ccc1N1CCCC1 [Example 10, 5-(4-((4-(4-(oxetan-3-yl)piperazin-1-yl)phenyl)amino)-1,3,5-triazin-2-yl)-2-(pyrrolidin-1-yl)benzonitrile] | 336 nM | 5 nM | – | 15 nM |
| CC(=O)N1CCN(c2ccc(Nc3ncnc(-c4ccc(OC5CCOCC5)c(C#N)c4)n3)cc2)CC1 [Example 11, 5-(4-((4-(4-acetylpiperazin-1-yl)phenyl)amino)-1,3,5-triazin-2-yl)-2-((tetrahydro-2H-pyran-4-yl)oxy)benzonitrile] | 224 nM | 1 nM | – | 4 nM |
| COc1cc(Nc2ncnc(-c3ccc(OC4CCOCC4)c(C#N)c3)n2)ccc1N1CCN(C2COC2)CC1 [Example 13, 5-(4-((3-methoxy-4-(4-(oxetan-3-yl)piperazin-1-yl)phenyl)amino)-1,3,5-triazin-2-yl)-2-((tetrahydro-2H-pyran-4-yl)oxy)benzonitrile] | 127 nM | 1 nM | – | 2 nM |
| C[C@H](O)C(=O)N1CCC(Oc2ccc(-c3ncnc(Nc4ccc(N5CCN(C6COC6)CC5)cc4)n3)cc2C#N)CC1 [Example 15, (S)-2-((1-(2-hydroxypropanoyl)piperidin-4-yl)oxy)-5-(4-((4-(4-(oxetan-3-yl)piperazin-1-yl)phenyl)amino)-1,3,5-triazin-2-yl)benzonitrile] | > 1000 nM | 5 nM | – | 14 nM |
| N#Cc1cc(-c2ncnc(Nc3ccc(N4CCN(C5COC5)CC4)cc3)n2)ccc1OC1CCN(C(=O)CO)CC1 [Example 16, 2-((1-(2-hydroxyacetyl)piperidin-4-yl)oxy)-5-(4-((4-(4-(oxetan-3-yl)piperazin-1-yl)phenyl)amino)-1,3,5-triazin-2-yl)benzonitrile] | 603 nM | 1 nM | – | 4 nM |
| N#Cc1cc(-c2ncnc(Nc3ccc(N4CCN(C5COC5)CC4)cc3)n2)ccc1OC1CCS(=O)(=O)CC1 [Example 17, 2-((1,1-dioxidotetrahydro-2H-thiopyran-4-yl)oxy)-5-(4-((4-(4-(oxetan-3-yl)piperazin-1-yl)phenyl)amino)-1,3,5-triazin-2-yl)benzonitrile] | 540 nM | 9 nM | – | 54 nM |
| N#Cc1cc(-c2ncnc(Nc3ccc(N4CCNCC4)cc3)n2)ccc1OC1CCOCC1 [Example 18, 5-(4-((4-(piperazin-1-yl)phenyl)amino)-1,3,5-triazin-2-yl)-2-((tetrahydro-2H-pyran-4-yl)oxy)benzonitrile, trifluoroacetic acid salt] | 271 nM | 1 nM | – | 1 nM |
